Data set [1] has as its system glutathione S-transferase (GST). The data set is described as follows: Glutathione S-transferase assay (CDNB conjugation, absorbance 340 nm). To be noted: for GST Activity > 50%: yes/no, compared to GSH, more than 50% considered retaining GST activity. Type of data set: biochemical, equine. The method, then: The degree of conjugation of GSH or novel compounds to a substrate catalysed by GST can be monitored […] by conjugation with the substrate 1-chloro-2,4-dinotrobenzene (CDNB) to a thiol group. Successful conjugation results in the formation of a S-DNB conjugate, which strongly absorbs at 340 nm.
A stock solution of GSH and novel compounds (0.0315 mmolL^−1) were prepared. GSH or novel compounds (26 µL) were added to a mixture of pH = 7.4 DPBS (170 µL), CDNB (2 µL, 100 mmolL^−1), and GST enzyme (2 µL, 25 UmL^−1) to initiate the reaction. The rate of increase in absorbance at 340 nm was monitored every minute over a 10 min period. The rate of increase in absorbance at 340 nm was calculated by the following equation (Equation (1)), where ΔA340 is the change in absorption at 340 nm per minute:(1) ΔA340=A340(final)–A340(initial)/t.
The rate of increase in absorption at 340 nm was correlated to the specific activity of GST using the following equation (Equation (2)):(2) ΔA340×V/εmM ×Venz=Specific activity of GST, where the extinction coefficient εmM for a 96-well plate of a path length of 0.5 cm is 5.3 mmolL^−1cm^−1; Venz is the volume of the GST enzyme sample used (2 µL); and V is the total volume used ([…]). […] A GST activity more than 50% was considered as retaining GST activity.

Data set [2] concerns Caco-2, Fibroblast, and HT29-MTX-E12 cells. As to the kind of experiment: Cytotoxicity by MTT cell viability. The data set is classed as cell-based. The following applies: for IC50: Homo sapiens, 24 h incubation, cell line not split in table (Caco-2, Fibroblast, HT29-MTX-E12), highest usable concentration 3.25 mmolL^−1. The method, then: All cell culture studies were conducted in aseptic conditions. Incubation was maintained at an atmosphere of 37.0 °C, 5% CO2, and 95% relative humidity. The caco-2 cells were grown in complete Dulbecco’s modified Eagle’s medium (DMEM), which was prepared by adding 10% foetal bovine serum (FBS), 1% penicillin-streptomycin (P-S), and 1% non-essential amino acids (NEAA) to sterile DMEM. Cells were cultured in T-25 and T-75 tissue culture flasks, and the medium was exchanged every 3 days until 90% confluence was reached. Cells were detached and subcultured with 0.25% Trypsin-EDTA. The suspended cell concentration was determined by cell counting.
Cytotoxicity was measured by measuring cell viability using MTT. Then, 90% confluent cells were detached by 0.25% trypsin-EDTA, which were then counted and seeded into sterile 96-well plates. Caco-2 cells were seeded into 96-well plates at a density of 100,000 cells per well and incubated for 24 h prior to the experiment. Fibroblast cells were seeded into 96-well plates at a density of 10,000 cells per well and incubated for 24 h prior to the experiment. HT-29 cells were seeded into 96-well plates at a density of 10,000 cells per well and incubated for 24 h prior to the experiment. The supernatant in each well were discarded and the attached cells were washed using serum-free Fluorobite^TM DMEM twice to remove any phenol red. The peptide, at concentrations of 10 mgmL^−1, 1 mgmL^−1, 0.1 mgmL^−1, 0.01 mgmL^−1, 0.001 mgmL^−1, and 0.0001 mgmL^−1 were dissolved in serum-free Fluorobite^TM DMEM. The total volume of sample in each well used was 100 μL. The cells were incubated with the peptide for 24 h. Cells were also incubated with serum-free DMEM (positive control) and 2% Triton-X (negative control) for 24 h. The supernatant in each well was then discarded and washed using serum-free Fluorobite^TM DMEM. MTT (100 μL, 1.2 mmolL^−1) dissolved in Fluorobite^TM DMEM was then added to each well and incubated for 2 h for MTT conversion into formazan. The supernatant was then discarded, and the cells were washed using Fluorobite^TM DMEM to remove any residual MTT and formazan that were not attached to cellular mitochondria. Formazan was dissolved in dimethyl sulfoxide (DMSO) (50 μL), and the absorbance was measured on a microplate reader at a wavelength of 570 nm. Cell viability was expressed as a percentage of the positive control and calculated as follows (where Aexp is the absorbance at 570 nm of the experimental group, Aneg is the absorbance at 570 nm of the negative control, and Acon is the cell viability of the positive control): Cell viability = (Aexp − Aneg)/(Acon − Aneg).

For a further data set, the system named is Fibroblast cells. The data set is described as follows: UV rescue of UVA-irradiated fibroblast cells (MTT). Type of data set: cell-based. The following applies: for % Cell Viability (with UV): UVA 1 h, then peptide 0.0325 mmolL^−1, 24 h. The method, then:
Fibroblast cells were seeded into 96-well plates at a density of 10,000 cells per well determined by cell counting. Cells were allowed to settle and attach for 24 h before the addition of peptides. The supernatant in each well was discarded, and the attached cells were washed using serum-free DMEM twice. One group of cells was exposed to UVA under a UV lamp for 1 h. A second group of cells was not exposed to UV irradiation. The supernatant was removed from each well of both groups and replaced with peptide (100 μL, 0.0325 mmolL^−1), which was then dissolved in Fluorobite^TM DMEM. Each plate, including 2 wells of both groups was also incubated with serum-free DMEM (positive control) and 2% Triton-X (negative control) for 24 h. The supernatant in each well of both groups was then discarded and the cells washed using PBS. MTT (100 μL, 6 mmolL^−1) that was dissolved in HBSS was then added to each well and incubated for 2 h for MTT conversion into formazan. The supernatant was then discarded, and the cells were washed using PBS to remove any residual MTT and formazan that were not attached to the cellular mitochondria. Formazan was dissolved in DMSO (50 μL), and the absorbance was measured on a microplate reader at a wavelength of 570 nm.

The structures appear in SMILES notation. A value given as a limit tells only on which side of the number the result lay.

The text below walks through data of publication PMC11945201, “Enhancing the Oral Bioavailability of Glutathione Using Innovative Analogue Approaches” (Pharmaceutics, 2025).

Regarding `CN(C(=O)CC[C@H](N)C(=O)O)[C@@H](CS)C(=O)NCC(=O)O` [Compound 1.70], the “activity/efficacy with GST enzyme (in words)” value in data set [1] (qualitative analysis) is “did not”. Also, the “GST Activity > 50%” value in data set [1] is “✔ (✔: yes)”. Moreover, the IC50 (in general, the concentration needed to halve the response being measured) in data set [2] is more than 3.25 mM. Moreover, the “cytotoxicity (in words)” value in data set [2] (up to 3.25 mmolL^−1) is listed as “no cytotoxicity detected”. Besides, the “cell viability versus untreated groups (in words)” value in the data set with Fibroblast cells (UV rescue) was “significantly higher cell viability than the untreated groups”. In the data set on Fibroblast cells (mean ± SD, n = 6), the “% Cell Viability (with UV)” value was found to be 112.4 ± 9.7%.

For `N[C@@H](CCC(=O)N[C@@H](CS)C(=O)NCC(=O)O)C(=O)O` [GSH, Glutathione], the “GST Activity > 50%” value in data set [1] is recorded as “✔ (✔: yes)”. The molecule also had an IC50 in data set [2] of more than 3.25 mM. In addition, in the data set on Fibroblast cells (mean ± SD, n = 6), the “% Cell Viability (with UV)” value came out at 87.7 ± 4.5%. The “% Cell Viability (no UV)” value with Fibroblast cells (peptide 0.0325 mmolL^−1, 24 h, no UV, mean ± SD, n = 6) was 100.0 ± 8.1%.
